According to patent US12331029B2, “Orexin 1 receptor antagonists” (NXERA PHARMA UK LIMITED, priority 2018, dated 2025):

Assays:
Human OX2 receptor [1] = molecular target: T1, Human OX2 receptor (Homo sapiens, UniProt O43614); assay: IPone accumulation assay, CHO cells expressing human OX2 receptor; type: cell-based; details: antagonism of orexin A (EC80) induced inositol phosphate turnover, read-out: fpKb average OX2
T1 sequence (O43614 1-444): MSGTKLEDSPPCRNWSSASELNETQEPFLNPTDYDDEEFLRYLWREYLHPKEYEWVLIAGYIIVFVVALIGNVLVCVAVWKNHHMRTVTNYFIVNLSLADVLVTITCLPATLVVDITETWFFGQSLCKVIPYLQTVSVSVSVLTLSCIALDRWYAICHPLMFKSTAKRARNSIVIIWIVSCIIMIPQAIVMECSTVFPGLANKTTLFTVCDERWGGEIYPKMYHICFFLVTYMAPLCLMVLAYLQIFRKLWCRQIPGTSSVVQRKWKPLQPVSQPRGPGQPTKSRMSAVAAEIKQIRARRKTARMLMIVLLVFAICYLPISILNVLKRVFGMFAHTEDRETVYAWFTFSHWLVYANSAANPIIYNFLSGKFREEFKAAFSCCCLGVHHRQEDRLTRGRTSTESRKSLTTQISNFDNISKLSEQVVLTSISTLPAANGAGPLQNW
Method: (§1) Stable cell lines for the human OX1R and OX2R receptors were generated through the transfection of CHO cells using the transfection reagent Genejuice (Novagen number 70967) and cDNA coding for either the human OX1R or OX2R. Cells were cultured in Sigma Nutrient Mixture F-12 Ham media (catalog number N6658) supplemented with 10% heat-inactivated FBS. Forty-eight hours after transfection, cells were harvested and placed under geneticin selection by culturing in Sigma Nutrient Mixture F-12 Ham media supplemented with 10% heat-inactivated FBS and geneticin (ThermoFisher Catalog number: 10131035). Selection of the final stable clone for each receptor was made on the basis of receptor expression, assay signal to noise and robustness though increasing passage. Selected clones for the human OX1R and OX2R were then frozen down into liquid nitrogen using Cell Freezing Medium-DMSO (Sigma-Aldrich catalog number: C6164).
IPone accumulation assay. A CHO cell line stably expressing either human OX1 or OX2 receptor was used with the IPone HTRF assay kit (CisBio: Part #62IPAPEJ) to measure receptor activation. The assay was optimised to measure the ability (potency; fpKb) of antagonists to reduce agonist (orexin A)-induced inositol phosphate turnover. Briefly, cells were plated onto half area 96-well white walled plates at a density of 12,500 cells/well. Sixteen hours post-plating cell growth media was replaced with antagonist concentration-response curve diluted in stimulation buffer (supplied with the kit). […] After 30 min stimulation in a humidified incubator (37° C.) the assay was terminated by the addition of detection mixture as per manufacturer's instructions. The concentration of compound which reduced orexin-A stimulated turnover of inositol phosphates by 50% (IC50) was calculated by fitting to a four parameter sigmoidal dose response curve. The IC50 values were converted to fpKB values using the orexin A pEC50 value estimated on each plate as well as the challenge concentration interpolated from the orexin A control curve.

Human OX2 receptor [2] = molecular target: T1, Human OX2 receptor; assay: [3H]-radioligand binding assay, human OX2 receptor membranes
Method: (§2) Human OX1 or OX2 receptor were cloned into Invitrogen's (ThermoFisher Scientific, UK) Bac-to-Bac Baculovirus Expression System. P0 baculovirus was generated by transfecting SF9 cells with bacmid DNA using Cellfectin® II transfection reagent (ThermoFisher Scientific, UK, Catalog number 10362-100). Following P0 generation P1 virus was then generated ready for large scale infection and membrane preparation. SF21 cells were grown in expression medium ESF921 (Expression Systems, USA, catalog number 96-001-01) supplemented with 10% heat-inactivated FBS and 1% Pen/Strep and were infected at a cell density of 2.5×10^6 cells/mL and a multiplicity of infection of 1.0 for both human OX1R and OX2R. Incubation was carried out at over 48 h in a shaking incubator set at 27° C. The cell culture was then centrifuged at 2,500 rcf for 10 min at 4° C. The pellets were resuspended in cold PBS supplemented with Roche's Complete EDTA-free protease inhibitor cocktail tablets (Roche Applied Sciences, catalog number 05056489001), 1 mM PMSF and 1 mM EDTA. The resuspended cell paste was then centrifuged at 3,273 rcf for 12 min at 4° C. The supernatant was discarded and the pellet frozen at −80° C. The cell pellet from a 4 L culture was resuspended in buffer containing 50 mM HEPES pH 7.5, 150 mM NaCl, 8 Roche EDTA-Free protease inhibitor cocktail tablets and 1 mM PMSF. The suspension was left stirring at rt for 1 h and then homogenised for 90 s at 9,500 rpm using a VDI 25 (VWR, USA) homogeniser. The cells were then lysed using a Microfluidiser processor M-110L Pneumatic (Microfluidics, USA) at 60 PSI and membranes collected by ultracentrifugation at 204.7 k×g for 1 h. The supernatant was discarded and the pellet was resuspended and homogenised in 90 s at 9,500 rpm in 50 mL (25 mL for each 2 L culture) of buffer containing 50 mM Hepes pH 7.5, 150 mM NaCl, 3 Roche EDTA-free protease inhibitor cocktail tablets and 1 mM PMSF. The resulting membranes were then stored at −80° C.
(§3) [^3H]-radioligand binding assay. After thawing, membrane homogenates were re-suspended in the binding buffer (8.5 mM HEPES, pH 7.4, 1.3 mM CaCl2, 1.2 mM MgSO4, 118 mM NaCl, 4.7 mM KCl, 4 mM NaHCO3, 1.2 mM KH2PO4, 11 mM glucose) to a final assay concentration of 6.4 μg (OX1) or 1.4 μg (OX2) protein per well. Saturation isotherms were determined by the addition of various concentrations (0-30 nM) of [^3H]-4-(2,6-difluoro-4-methoxybenzyl)-2-(5,6-dimethoxypyridin-3-yl)-2H-1,2,4-benzothiadiazin-3(4H)-one 1,1-dioxide (Christopher et al, MedChemComm., 2015, 6, 947-955) in a total reaction volume of 250 μL for 90 min at rt. At the end of the incubation, membranes were filtered onto a 96-well GF/B filter pre-incubated with 0.5% polyethylenimine, with a Tomtec cell harvester and washed 5 times with 0.5 mL distilled water. Non-specific binding (NSB) was measured in the presence of 3.33 μM [4-(5-chloro-1,3-benzoxazol-2-yl)-7-methyl-1,4-diazepan-1-yl][5-methyl-2-(2H-1,2,3-triazol-2-yl)phenyl]methanone (Wertz et al, Angew. Chem. Int. Ed., 2011, 50, 11511-11515). Radioactivity on the filter was counted (1 min) on a Microbeta radiometric plate counter (Perkin Elmer) after addition of 50 μL of scintillation fluid (LabLogic: Part #SG-BXX-14). […] IC50 values were derived from the inhibition curve and the equilibrium dissociation constant (Ki) values were calculated using the Cheng-Prusoff equation.

Human OX1 receptor [3] = molecular target: T2, Human OX1 receptor (Homo sapiens, UniProt O43613); assay: [3H]-radioligand binding assay, human OX1 receptor membranes
T2 sequence (O43613 1-425): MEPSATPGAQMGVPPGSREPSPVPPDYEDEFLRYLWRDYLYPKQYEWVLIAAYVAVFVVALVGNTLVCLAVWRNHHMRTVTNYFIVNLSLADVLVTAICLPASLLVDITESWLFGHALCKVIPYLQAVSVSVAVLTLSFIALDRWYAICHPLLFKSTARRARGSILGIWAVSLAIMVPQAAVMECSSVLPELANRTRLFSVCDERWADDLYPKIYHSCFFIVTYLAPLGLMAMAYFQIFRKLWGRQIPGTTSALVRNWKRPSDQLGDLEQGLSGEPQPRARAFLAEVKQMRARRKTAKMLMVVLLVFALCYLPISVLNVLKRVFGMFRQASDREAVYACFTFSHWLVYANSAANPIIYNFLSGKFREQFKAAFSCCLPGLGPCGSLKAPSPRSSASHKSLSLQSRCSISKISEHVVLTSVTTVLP
Method: as §2, §3

Human OX1 receptor [4] = molecular target: T2, Human OX1 receptor; assay: IPone accumulation assay, CHO cells expressing human OX1 receptor; type: cell-based; details: antagonism of orexin A (EC80) induced inositol phosphate turnover, read-out: fpKb average OX1 (converted)
Method: as §1
IPone accumulation assay. A CHO cell line stably expressing either human OX1 or OX2 receptor was used with the IPone HTRF assay kit (CisBio: Part #62IPAPEJ) to measure receptor activation. The assay was optimised to measure the ability (potency; fpKb) of antagonists to reduce agonist (orexin A)-induced inositol phosphate turnover. Briefly, cells were plated onto half area 96-well white walled plates at a density of 12,500 cells/well. Sixteen hours post-plating cell growth media was replaced with antagonist concentration-response curve diluted in stimulation buffer (supplied with the kit). Cells were incubated in a humidified incubator (37° C.) for 30 min before an EC80 challenge concentration (˜20 nM (OX1) and 40 nM (OX2)) of orexin A (Tocris catalogue number 1455). After 30 min stimulation in a humidified incubator (37° C.) the assay was terminated by the addition of detection mixture as per manufacturer's instructions. The concentration of compound which reduced orexin-A stimulated turnover of inositol phosphates by 50% (IC50) was calculated by fitting to a four parameter sigmoidal dose response curve. The IC50 values were converted to fpKB values using the orexin A pEC50 value estimated on each plate as well as the challenge concentration interpolated from the orexin A control curve.

Structure (SMILES)	Kb (Human OX2 receptor [1]) [nM]	Ki (Human OX2 receptor [2]) [nM]	Ki (Human OX1 receptor [3]) [nM]	Kb (Human OX1 receptor [4]) [nM]	Kd (Human OX2 receptor [2]; read-out: KD value of the radioligand, OX2, saturation isotherms) [nM]	Kd (Human OX1 receptor [3]; read-out: KD value of the radioligand, OX1, saturation isotherms) [nM]
COc1cccc(-c2ccncn2)c1C(=O)N[C@H]1CCC[C@@H]1COc1ccc(F)cc1 [Example 12, N-[(1S,2S)-2-[(4-fluorophenoxy)methyl]cyclopentyl]-2-methoxy-6-pyrimidin-4-yl-benzamide]	> 631	1000	3.16	12.6	–	–
O=C(N[C@H]1CCC[C@@H]1COc1ccc(F)cc1)c1c(F)cccc1-c1ncccn1 [Example 10, 2-fluoro-N-[(1S,2S)-2-[(4-fluorophenoxy)methyl]cyclopentyl]-6-pyrimidin-2-yl-benzamide]	> 631	1580	6.31	20	–	–
O=C(N[C@H]1CCC[C@@H]1COc1ccc(F)cc1)c1ccccc1-n1nccn1 [Example 1, N-[(1S,2S)-2-[(4-fluorophenoxy)methyl]cyclopentyl]-2-(triazol-2-yl)benzamide]	> 1580	> 3160	10	126	–	–
COc1cccc(-n2nccn2)c1C(=O)N[C@H]1CCC[C@@H]1COc1ccc(Cl)cc1 [Example 6, N-[(1S,2S)-2-[(4-chlorophenoxy)methyl]cyclopentyl]-2-methoxy-6-(triazol-2-yl)benzamide]	> 794	200	2.51	6.31	–	–
COc1cccc(-c2ncccn2)c1C(=O)N[C@H]1CCC[C@@H]1COc1ccc(F)cc1 [Example 9, N-[(1S,2S)-2-[(4-fluorophenoxy)methyl]cyclopentyl]-2-methoxy-6-pyrimidin-2-yl-benzamide]	–	–	3.98	10	–	–
Cc1ccc(-n2nccn2)c(C(=O)N[C@H]2CCC[C@@H]2COc2ccc(F)cc2)c1 [Example 3, N-[(1S,2S)-2-[(4-fluorophenoxy)methyl]cyclopentyl]-5-methyl-2-(triazol-2-yl)benzamide]	–	> 1260	15.8	–	–	–
O=C(N[C@H]1CCC[C@@H]1COc1ccc(F)cc1)c1c(OC(F)F)cccc1-n1nccn1 [Example 8, 2-(difluoromethoxy)-N-[(1S,2S)-2-[(4-fluorophenoxy)methyl]cyclopentyl]-6-(triazol-2-yl)benzamide]	> 398	631	6.31	79.4	–	–
COc1cccc(-c2cnccn2)c1C(=O)N[C@H]1CCC[C@@H]1COc1ccc(F)cc1 [Example 11, N-[(1S,2S)-2-[(4-fluorophenoxy)methyl]cyclopentyl]-2-methoxy-6-pyrazin-2-yl-benzamide]	> 631	–	7.94	20	–	–

Results, then the compound that gave them:

Kb (Human OX2 receptor [1]) [nM]	Ki (Human OX2 receptor [2]) [nM]	Ki (Human OX1 receptor [3]) [nM]	Kb (Human OX1 receptor [4]) [nM]	Kd (Human OX2 receptor [2]; read-out: KD value of the radioligand, OX2, saturation isotherms) [nM]	Kd (Human OX1 receptor [3]; read-out: KD value of the radioligand, OX1, saturation isotherms) [nM]	Structure (SMILES)
> 631	> 3980	15.8	15.8	–	–	Cc1ccc(-c2ncccn2)c(C(=O)N[C@H]2CCC[C@@H]2COc2ccc(F)cc2)n1 [Example 24, N-[(1S,2S)-2-[(4-fluorophenoxy)methyl]cyclopentyl]-6-methyl-3-pyrimidin-2-yl-pyridine-2-carboxamide]
> 631	794	6.31	39.8	–	–	COc1nccc(-n2nccn2)c1C(=O)N[C@H]1CCC[C@@H]1COc1ccc(F)cc1 [Example 29, N-[(1S,2S)-2-[(4-fluorophenoxy)methyl]cyclopentyl]-2-methoxy-4-(triazol-2-yl)pyridine-3-carboxamide]
> 631	1580	12.6	20	–	–	COc1ccc(F)c(-n2nccn2)c1C(=O)N[C@H]1CCC[C@@H]1COc1ccc(F)cc1 [Example 16, 3-fluoro-N-[(1S,2S)-2-[(4-fluorophenoxy)methyl]cyclopentyl]-6-methoxy-2-(triazol-2-yl)benzamide]
> 2510	> 1260	12.6	158	–	–	O=C(N[C@H]1CCC[C@@H]1COc1ccc(F)cc1)c1c(OC(F)F)cccc1-c1ncccn1 [Example 15, 2-(difluoromethoxy)-N-[(1S,2S)-2-[(4-fluorophenoxy)methyl]cyclopentyl]-6-pyrimidin-2-yl-benzamide]
> 631	> 3160	7.94	79.4	–	–	O=C(N[C@H]1CCC[C@@H]1COc1ccc(F)cc1)c1ncccc1-c1ncccn1 [Example 25, N-[(1S,2S)-2-[(4-fluorophenoxy)methyl]cyclopentyl]-3-pyrimidin-2-yl-pyridine-2-carboxamide]
> 631	> 5010	12.6	794	–	–	COc1ccc(-n2nccn2)c(C(=O)N[C@H]2CCC[C@@H]2COc2ccc(Cl)cc2)n1 [Example 21, N-[(1S,2S)-2-[(4-chlorophenoxy)methyl]cyclopentyl]-6-methoxy-3-(triazol-2-yl)pyridine-2-carboxamide]
> 501	126	1.26	1	–	–	[2H]C([2H])([2H])Oc1cccc(-n2nccn2)c1C(=O)N[C@H]1CCC[C@@H]1COc1ccc(F)cc1 [Example 14, N-[(1S,2S)-2-[(4-fluorophenoxy)methyl]cyclopentyl]-2-(triazol-2-yl)-6-(trideuteriomethoxy)benzamide]
–	–	–	–	0.75	1.5	COc1cc(F)c(CN2C(=O)N(c3cnc(OC)c(OC)c3)S(=O)(=O)c3ccccc32)c(F)c1 [[^3H]-4-(2,6-difluoro-4-methoxybenzyl)-2-(5,6-dimethoxypyridin-3-yl)-2H-1,2,4-benzothiadiazin-3(4H)-one 1,1-dioxide, reference compound]
> 1260	> 3160	3.98	25.1	–	–	Cc1ccc(-n2nccn2)c(C(=O)N[C@H]2CCC[C@@H]2COc2ccc(F)cc2)n1 [Example 22, N-[(1S,2S)-2-[(4-fluorophenoxy)methyl]cyclopentyl]-6-methyl-3-(triazol-2-yl)pyridine-2-carboxamide]
–	–	6.31	10	–	–	COc1cccc(-n2nccn2)c1C(=O)N[C@H]1CCC[C@@H]1COc1ccc(F)cn1 [Example 31, N-[(1S,2S)-2-[(5-fluoro-2-pyridyl)oxymethyl]cyclopentyl]-2-methoxy-6-(triazol-2-yl)benzamide]
–	–	3.98	15.8	–	–	[2H]C([2H])([2H])Oc1cccc(-n2nccn2)c1C(=O)N[C@H]1CCC[C@@H]1COc1ccc(F)cn1 [Example 33, N-[(1S,2S)-2-[(5-fluoro-2-pyridyl)oxymethyl]cyclopentyl]-2-(triazol-2-yl)-6-(trideuteriomethoxy)benzamide]
